Measurements from patent publication US11396524B2, “Hydrate crystal of 3′,3′-cGAMP” (Yamasa Corporation, priority 2018, dated 2022).

Columns and labels:
Type in all cases: physicochemical
[1] = Stability test, crystals stored at 60° C.
Experimental: Meanwhile, the crystals were stored at 60° C. and subjected to a stability test.

[2] = Crystal moisture content by the Karl-Fischer method; conditions: for Moisture content after storage at a humidity of 43% for 1 day: stored at humidity 43% for 1 day
Experimental: In Example 1, the crystals of 3′,3′-cGAMP sodium salt were prepared. Here, the crystal moisture content immediately after drying was measured by the Karl-Fischer method. As a result, the moisture content was 7.9%. […] In addition, the crystals were stored at a humidity of 43% for 1 day so as to stabilize their moisture content. The moisture content was likewise measured.
The crystals of 3′,3′-cGAMP free acid as prepared in Example 2 were stored at a humidity of 43% for 1 day so as to stabilize their moisture content. Then, the crystal moisture content was measured by the Karl-Fischer method.

[3] = Hygroscopicity test: standing 3 days in desiccator at 30° C. and 93% humidity, moisture content by the Karl-Fischer method; conditions: for Moisture content after standing / Moisture content before standing: Karl-Fischer method; for Moisture content after standing: after standing 3 days at 30° C., humidity 93% (saturated potassium nitrate desiccator); for Moisture content before standing: before standing at 30° C.; for Moisture content before standing / Δ Moisture content: humidity 93%; for Δ Moisture content: after minus before standing 3 days at 30° C.
Experimental: A hydrate crystal of 3′,3′-cGAMP according to the invention may be either a crystal of alkali metal salt or a crystal of free acid. Either is less hygroscopic than existing powder. Thus, each is easy to handle in various purposes and is thus useful as a pharmaceutical raw material or the like. Note that the wording “less hygroscopic” herein refers to the case where after (A) allowed to stand for 1 day under conditions at a temperature of 30° C. and a humidity of 43% and then (B) allowed to stand for 3 days under conditions at a temperature of 30° C. and a humidity of 93%, a substance of interest has a moisture content of 25% or less at the end point (B) and the difference in the moisture content between the end point (A) and the end point (B) is within ±5%.
The crystals obtained in the above Examples 1 and 2 as well as the lyophilized product obtained in the Reference Example were allowed to stand for 3 days in a desiccator filled with a saturated potassium nitrate solution and kept at a temperature of 30° C. and a humidity of 93%. The moisture content was compared between before and after the standing by the Karl-Fischer method.

Substance	Stability under high temperature conditions (decomposition of 3′,3′-cGAMP) [1]	Moisture content after storage at a humidity of 43% for 1 day [2] [%]	Moisture content after standing [3] [%]	Moisture content before standing [3] [%]	Δ Moisture content [3] [%]	Moisture content immediately after drying ([2]; immediately after drying) [%]	Moisture content after standing ([3]; sodium salt) [%]	Δ Moisture content ([3]; sodium salt)	Moisture content before standing ([3]; sodium salt) [%]
3′,3′-cGAMP free acid [Example 2]	not apparently decomposed	24.7	23.09	24.71	−1.62				
3′,3′-cGAMP sodium salt [Example 1]	not apparently decomposed	18.1		18.10		7.9	21.60	+3.50%	
3′,3′-cGAMP sodium salt [Reference Example, reference compound]							36.01	+23.07%	12.94
